Data from patent US11053251B2, “GPR35 modulators” (Prometheus Biosciences, Inc., priority 2019, dated 2021).

Each compound was assayed against Human GPR35 (Homo sapiens, UniProt Q9HC97, S294R) (assay: Alternative Beta-Arrestin Assay (JumpIn 294R Tango U2OS cells, LiveBLAzer-FRET B/G)). Conditions: Human GPR35 expressing JumpIn 294R Tango U2OS cells, 5 hours treatment.
Type: cell-based
Method in brief: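 U2OS Tango cells expressing human GPR35 S294R, plated overnight, exposed to serially diluted compounds for 5 hours. β-lactamase reporter read with LiveBLAzer-FRET B/G (CCF4-AM) after 2 h; EC50 from four-parameter fit, zaprinast as positive control.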

Chain of Human GPR35 (Q9HC97 whole entry S294R): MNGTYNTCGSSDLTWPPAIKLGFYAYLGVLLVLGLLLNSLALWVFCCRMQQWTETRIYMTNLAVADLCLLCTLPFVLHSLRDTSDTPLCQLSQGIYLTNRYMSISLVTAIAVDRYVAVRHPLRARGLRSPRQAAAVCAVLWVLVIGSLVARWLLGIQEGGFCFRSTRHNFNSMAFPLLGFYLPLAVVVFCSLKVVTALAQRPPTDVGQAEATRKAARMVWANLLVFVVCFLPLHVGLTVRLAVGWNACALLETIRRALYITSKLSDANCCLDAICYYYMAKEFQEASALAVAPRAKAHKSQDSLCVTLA

EC50, ≤ 10 µM:
O=C(O)c1cccc(-c2ccc(-c3nc4[nH]nnc4c(=O)[nH]3)c(OC3CCCC3)c2)c1O [Compound 209, 3′-(Cyclopentyloxy)-2-hydroxy-4′-(7-oxo-6,7-dihydro-3H-[1,2,3]triazolo[4,5-d]pyrimidin-5-yl)-[1,1′-biphenyl]-3-carboxylic acid]
CCOc1cc(-c2cccc(C[C@@H](OC)C(=O)O)c2)ccc1-c1nc2[nH]nnc2c(=O)[nH]1 [Compound 285, (R)-3-(3′-ethoxy-4′-(7-oxo-6,7-dihydro-3H-[1,2,3]triazolo[4,5-d]pyrimidin-5-yl)-[1,1′-biphenyl]-3-yl)-2-methoxypropanoic acid]
Nc1cc(-c2nc3[nH]nnc3c(=O)[nH]2)ccc1-c1ccc(C(=O)O)cc1 [Compound 287, 2′-amino-4′-(7-oxo-6,7-dihydro-3H-[1,2,3]triazolo[4,5-d]pyrimidin-5-yl)-[1,1′-biphenyl]-4-carboxylic acid]
CCOc1cc(-c2ccc(C)c(OC(CC)C(=O)O)c2)ccc1-c1nc2[nH]nnc2c(=O)[nH]1 (stereo not drawn) [Compound 272, 2-((3′-ethoxy-4-methyl-4′-(7-oxo-6,7-dihydro-3H-[1,2,3]triazolo[4,5-d]pyrimidin-5-yl)-[1,1′-biphenyl]-3-yl)oxy)butanoic acid]
CCOc1cc(-c2ccc(OCCN(C)C)c(CCC(=O)O)c2)ccc1-c1nc2[nH]nnc2c(=O)[nH]1 [Compound 320, 3-(4-(2-(dimethylamino)ethoxy)-3′-ethoxy-4′-(7-oxo-6,7-dihydro-3H-[1,2,3]triazolo[4,5-d]pyrimidin-5-yl)-[1,1′-biphenyl]-3-yl)propanoic acid]
CCOc1cc(-c2cccc(O[C@@H](CC)C(=O)O)c2)ccc1-c1nc2[nH]nnc2c(=O)[nH]1 (single isomer, unassigned) [Compound 254]
CCOc1cc(-c2ccc(OCC(=O)O)cc2)ccc1-c1nc2[nH]nnc2c(=O)[nH]1 [Compound 211, 2-((3′-Ethoxy-4′-(7-oxo-6,7-dihydro-3H-[1,2,3]triazolo[4,5-d]pyrimidin-5-yl)-[1,1′-biphenyl]-4-yl)oxy)acetic acid]
CCOc1cc(-c2cccc(C(C)(C)C(=O)O)c2)ccc1-c1nc2[nH]nnc2c(=O)[nH]1 [Compound 298, 2-(3′-ethoxy-4′-(7-oxo-6,7-dihydro-3H-[1,2,3]triazolo[4,5-d]pyrimidin-5-yl)-[1,1′-biphenyl]-3-yl)-2-methylpropanoic acid]
CCOc1cc(-c2cccc(C[C@@H](O)C(=O)O)c2)ccc1-c1nc2[nH]nnc2c(=O)[nH]1 [Compound 284, (R)-3-(3′-ethoxy-4′-(7-oxo-6,7-dihydro-3H-[1,2,3]triazolo[4,5-d]pyrimidin-5-yl)-[1,1′-biphenyl]-3-yl)-2-hydroxypropanoic acid]
CCOc1cc(-c2ccc(OCCN(C)C)c(/C=C/C(=O)O)c2)ccc1-c1nc2[nH]nnc2c(=O)[nH]1 [Compound 319, (E)-3-(4-(2-(dimethylamino)ethoxy)-3′-ethoxy-4′-(7-oxo-6,7-dihydro-3H-[1,2,3]triazolo[4,5-d]pyrimidin-5-yl)-[1,1′-biphenyl]-3-yl)acrylic acid]
CCOc1cc(-c2cc(C)cc(O[C@@H](C)C(=O)O)c2)ccc1-c1nc2[nH]nnc2c(=O)[nH]1 [Compound 267, (S)-2-((3′-ethoxy-5-methyl-4′-(7-oxo-6,7-dihydro-3H-[1,2,3]triazolo[4,5-d]pyrimidin-5-yl)-[1,1′-biphenyl]-3-yl)oxy)propanoic acid]
CN(C)c1cc(-c2nc3[nH]nnc3c(=O)[nH]2)ccc1-c1ccc(C(=O)O)cc1 [Compound 288, 2′-(dimethylamino)-4′-(7-oxo-6,7-dihydro-3H-[1,2,3]triazolo[4,5-d]pyrimidin-5-yl)-[1,1′-biphenyl]-4-carboxylic acid]
CCOC(=O)COc1cccc(-c2ccc(-c3nc4[nH]nnc4c(=O)[nH]3)c(OC3CCCC3)c2)c1 [Compound 270, ethyl 2-((3′-(cyclopentyloxy)-4′-(7-oxo-6,7-dihydro-3H-[1,2,3]triazolo[4,5-d]pyrimidin-5-yl)-[1,1′-biphenyl]-3-yl)oxy)acetate]
CCOc1cc(-c2cccc(NCC(=O)O)c2)ccc1-c1nc2[nH]nnc2c(=O)[nH]1 [Compound 214, (3′-Ethoxy-4′-(7-oxo-6,7-dihydro-3H-[1,2,3]triazolo[4,5-d]pyrimidin-5-yl)-[1,1′-biphenyl]-3-yl)glycine]
CCOc1cc(-c2ccc(OCCN3CCCC3)c(/C=C(\C)C(=O)O)c2)ccc1-c1nc2[nH]nnc2c(=O)[nH]1 [Compound 299, (E)-3-(3′-ethoxy-4′-(7-oxo-6,7-dihydro-3H-[1,2,3]triazolo[4,5-d]pyrimidin-5-yl)-4-(2-(pyrrolidin-1-yl)ethoxy)-[1,1′-biphenyl]-3-yl)-2-methylacrylic acid]
O=C(O)c1ccc(-c2ccc(-c3nc4[nH]nnc4c(=O)[nH]3)cc2NC2CCCCC2)cc1 [Compound 289, 2′-(cyclohexylamino)-4′-(7-oxo-6,7-dihydro-3H-[1,2,3]triazolo[4,5-d]pyrimidin-5-yl)-[1,1′-biphenyl]-4-carboxylic acid]
CCOc1cc(-c2ccc(F)c(O[C@H](C)C(=O)O)c2)ccc1-c1nc2[nH]nnc2c(=O)[nH]1 [Compound 264, (R)-2-((3′-ethoxy-4-fluoro-4′-(7-oxo-6,7-dihydro-3H-[1,2,3]triazolo[4,5-d]pyrimidin-5-yl)-[1,1′-biphenyl]-3-yl)oxy)propanoic acid]
CCOc1cc(-c2cccc(C(C)C(=O)O)c2)ccc1-c1nc2[nH]nnc2c(=O)[nH]1 (stereo not drawn) [Compound 297, 2-(3′-ethoxy-4′-(7-oxo-6,7-dihydro-3H-[1,2,3]triazolo[4,5-d]pyrimidin-5-yl)-[1,1′-biphenyl]-3-yl)propanoic acid]
CCOc1cc(-c2cccc(OC(C(=O)O)c3ccccc3)c2)ccc1-c1nc2[nH]nnc2c(=O)[nH]1 (stereo not drawn) [Compound 249, 2-((3′-ethoxy-4′-(7-oxo-6,7-dihydro-3H-[1,2,3]triazolo[4,5-d]pyrimidin-5-yl)-[1,1′-biphenyl]-3-yl)oxy)-2-phenylacetic acid]
O=C(O)c1ccc(-c2ccc(-c3nc4[nH]nnc4c(=O)[nH]3)cc2NCc2ccccc2)cc1 [Compound 290, 2′-(benzylamino)-4′-(7-oxo-6,7-dihydro-3H-[1,2,3]triazolo[4,5-d]pyrimidin-5-yl)-[1,1′-biphenyl]-4-carboxylic acid]
CCOc1cc(-c2nc(C(=O)O)co2)ccc1-c1nc2[nH]nnc2c(=O)[nH]1 [Compound 188, 2-(3-ethoxy-4-(7-oxo-6,7-dihydro-3H-[1,2,3]triazolo[4,5-d]pyrimidin-5-yl)phenyl)oxazole-4-carboxylic acid]
CCOc1cc(-c2cccc(OC(C)(C)C(=O)O)c2)ccc1-c1nc2[nH]nnc2c(=O)[nH]1 [Compound 213, 2-((3′-Ethoxy-4′-(7-oxo-6,7-dihydro-3H-[1,2,3]triazolo[4,5-d]pyrimidin-5-yl)-[1,1′-biphenyl]-3-yl)oxy)-2-methylpropanoic acid]
CC(Oc1cccc(-c2ccc(-c3nc4[nH]nnc4c(=O)[nH]3)c(OC3CCCC3)c2)c1)C(=O)O (stereo not drawn) [Compound 250, 2-((3′-(cyclopentyloxy)-4′-(7-oxo-6,7-dihydro-3H-[1,2,3]triazolo[4,5-d]pyrimidin-5-yl)-[1,1′-biphenyl]-3-yl)oxy)propanoic acid]
O=C(O)c1ccc(-c2ccc(-c3nc4[nH]nnc4c(=O)[nH]3)c(OC3CCCC3)c2)cc1 [Compound 194, 3′-(Cyclopentyloxy)-4′-(7-oxo-6,7-dihydro-3H-[1,2,3]triazolo[4,5-d]pyrimidin-5-yl)-[1,1′-biphenyl]-4-carboxylic acid]
CCOc1cc(-c2cc(C)cc(C(=O)O)c2)ccc1-c1nc2[nH]nnc2c(=O)[nH]1 [Compound 185, 3′-ethoxy-5-methyl-4′-(7-oxo-6,7-dihydro-3H-[1,2,3]triazolo[4,5-d]pyrimidin-5-yl)-[1,1′-biphenyl]-3-carboxylic acid]
CCOc1cc(-c2cccc(CC(C)C(=O)O)c2)ccc1-c1nc2[nH]nnc2c(=O)[nH]1 (single isomer, unassigned) [Compound 311, 3-(3′-ethoxy-4′-(7-oxo-6,7-dihydro-3H-[1,2,3]triazolo[4,5-d]pyrimidin-5-yl)-[1,1′-biphenyl]-3-yl)-2-methylpropanoic acid]
O=C(O)COc1cccc(-c2ccc(-c3nc4[nH]nnc4c(=O)[nH]3)c(OC3CCCC3)c2)c1 [Compound 216, 2-((3′-(Cyclopentyloxy)-4′-(7-oxo-6,7-dihydro-3H-[1,2,3]triazolo[4,5-d]pyrimidin-5-yl)-[1,1′-biphenyl]-3-yl)oxy)acetic acid]
CCOc1cc(-c2cc(C(=O)O)n(C)c2)ccc1-c1nc2[nH]nnc2c(=O)[nH]1 [Compound 192, 4-(3-ethoxy-4-(7-oxo-6,7-dihydro-3H-[1,2,3]triazolo[4,5-d]pyrimidin-5-yl)phenyl)-1-methyl-1H-pyrrole-2-carboxylic acid]
CCOc1cc(-c2cccc(NCCC(=O)O)c2)ccc1-c1nc2[nH]nnc2c(=O)[nH]1 [Compound 226, 3-((3′-Ethoxy-4′-(7-oxo-6,7-dihydro-3H-[1,2,3]triazolo[4,5-d]pyrimidin-5-yl)-[1,1′-biphenyl]-3-yl)amino)propanoic acid]
CCOc1cc(-c2ccc(NCC(=O)O)cc2)ccc1-c1nc2[nH]nnc2c(=O)[nH]1 [Compound 215, (3′-Ethoxy-4′-(7-oxo-6,7-dihydro-3H-[1,2,3]triazolo[4,5-d]pyrimidin-5-yl)-[1,1′-biphenyl]-4-yl)glycine]
